Measured values reported in patent US20160038468A1 (priority 2013, published 2016).
Converted amounts (≈) assume the structure as drawn. Where two headings read alike, the source gives them in different places.

Experiments:
Format in all cases: cell-based
[1] = tested on: Peptoniphilus harei; test: Agar dilution MIC (CLSI), Peptoniphilus harei vaginal isolates; details: for Number of strains with indicated MIC: 23 samples; for MIC: read-out: Minimal Inhibitory Concentration (MIC)
[2] = tested on: Peptoniphilus lacrimalis; test: Agar dilution MIC (CLSI), Peptoniphilus lacrimalis vaginal isolates; details: for Number of strains with indicated MIC: 20 samples; for MIC: read-out: Minimal Inhibitory Concentration (MIC)
[3] = tested on: Megasphaera-like bacteria; test: Agar dilution MIC (CLSI), Megasphaera-like bacteria vaginal isolates; details: for MIC: read-out: Minimal Inhibitory Concentration (MIC); for Number of strains with indicated MIC: 25 samples
[4] = Peptoniphilus harei, # tested 23
[5] = Peptoniphilus lacrimalis, # tested 20

CO[C@H]1/C=C/O[C@@]2(C)Oc3c(C)c(O)c4c(O)c(c5c(nc6cc(C)ccn65)c4c3C2=O)NC(=O)/C(C)=C\C=C\[C@H](C)[C@H](O)[C@@H](C)[C@@H](O)[C@@H](C)[C@H](OC(C)=O)[C@@H]1C [Rifaximin]
Number of strains with indicated MIC ([1]; MIC 0.00375 μg/ml): 1
Number of strains with indicated MIC ([1]; MIC 0.0075 μg/ml): 15
Number of strains with indicated MIC ([1]; MIC 0.015 μg/ml): 6
Number of strains with indicated MIC ([1]; MIC 0.03 μg/ml): 1
MIC ([1]; Peptoniphilus harei, isolate 426868V D): 0.0075 µg/mL (≈ 0.00954 µM)
MIC ([1]; Peptoniphilus harei, isolate 601098V Q): 0.0075 µg/mL (≈ 0.00954 µM)
MIC ([1]; Peptoniphilus harei, isolate 601203V 8): 0.0075 µg/mL (≈ 0.00954 µM)
MIC ([1]; Peptoniphilus harei, isolate 601212V 15): 0.0075 µg/mL (≈ 0.00954 µM)
MIC ([1]; Peptoniphilus harei, isolate 601233V R): 0.03 µg/mL (≈ 0.0382 µM)
MIC ([1]; Peptoniphilus harei, isolate 601248V 23): 0.0075 µg/mL (≈ 0.00954 µM)
MIC ([1]; Peptoniphilus harei, isolate 601259V 11): 0.015 µg/mL (≈ 0.0191 µM)
MIC ([1]; Peptoniphilus harei, isolate 601289V C): 0.0075 µg/mL (≈ 0.00954 µM)
MIC ([1]; Peptoniphilus harei, isolate 601293V 21): 0.0075 µg/mL (≈ 0.00954 µM)
MIC ([1]; Peptoniphilus harei, isolate 601302V F1): 0.015 µg/mL (≈ 0.0191 µM)
MIC ([1]; Peptoniphilus harei, isolate 601311V R): 0.00375 µg/mL (≈ 0.00477 µM)
MIC ([1]; Peptoniphilus harei, isolate 601326V F): 0.015 µg/mL (≈ 0.0191 µM)
MIC ([1]; Peptoniphilus harei, isolate 601342V F): 0.0075 µg/mL (≈ 0.00954 µM)
MIC ([1]; Peptoniphilus harei, isolate 601355V D): 0.015 µg/mL (≈ 0.0191 µM)
MIC ([1]; Peptoniphilus harei, isolate 601365V 14): 0.0075 µg/mL (≈ 0.00954 µM)
MIC ([1]; Peptoniphilus harei, isolate 601374V F): 0.015 µg/mL (≈ 0.0191 µM)
MIC ([1]; Peptoniphilus harei, isolate 601388V Q): 0.0075 µg/mL (≈ 0.00954 µM)
MIC ([1]; Peptoniphilus harei, isolate 601399V 16): 0.0075 µg/mL (≈ 0.00954 µM)
MIC ([1]; Peptoniphilus harei, isolate 601409V L): 0.0075 µg/mL (≈ 0.00954 µM)
MIC ([1]; Peptoniphilus harei, isolate 601413V 16): 0.0075 µg/mL (≈ 0.00954 µM)
MIC ([1]; Peptoniphilus harei, isolate 601426V D): 0.0075 µg/mL (≈ 0.00954 µM)
MIC ([1]; Peptoniphilus harei, isolate 601430V 22): 0.015 µg/mL (≈ 0.0191 µM)
MIC ([1]; Peptoniphilus harei, isolate 601539V 25B): 0.0075 µg/mL (≈ 0.00954 µM)
MIC50 [1, 4]: 0.0075 µg/mL (≈ 0.00954 µM)
MIC90 [1, 4]: 0.015 µg/mL (≈ 0.0191 µM)
MIC Range ([2]; # tested 20): 0.00375 to 0.03 µg/mL
Number of strains with indicated MIC ([2]; MIC 0.00375 μg/ml): 2
Number of strains with indicated MIC ([2]; MIC 0.0075 μg/ml): 5
Number of strains with indicated MIC ([2]; MIC 0.015 μg/ml): 12
Number of strains with indicated MIC ([2]; MIC 0.03 μg/ml): 1
MIC ([2]; Peptoniphilus lacrimalis, isolate 601028V 27A): 0.015 µg/mL (≈ 0.0191 µM)
MIC ([2]; Peptoniphilus lacrimalis, isolate 601060V 32A): 0.015 µg/mL (≈ 0.0191 µM)
MIC ([2]; Peptoniphilus lacrimalis, isolate 601078V O): 0.015 µg/mL (≈ 0.0191 µM)
MIC ([2]; Peptoniphilus lacrimalis, isolate 601084V c): 0.015 µg/mL (≈ 0.0191 µM)
MIC ([2]; Peptoniphilus lacrimalis, isolate 601105V 13): 0.015 µg/mL (≈ 0.0191 µM)
MIC ([2]; Peptoniphilus lacrimalis, isolate 601139V 17): 0.015 µg/mL (≈ 0.0191 µM)
MIC ([2]; Peptoniphilus lacrimalis, isolate 601213V 17): 0.015 µg/mL (≈ 0.0191 µM)
MIC ([2]; Peptoniphilus lacrimalis, isolate 601255V 12): 0.015 µg/mL (≈ 0.0191 µM)
MIC ([2]; Peptoniphilus lacrimalis, isolate 601261V O): 0.015 µg/mL (≈ 0.0191 µM)
MIC ([2]; Peptoniphilus lacrimalis, isolate 601293V 15): 0.03 µg/mL (≈ 0.0382 µM)
MIC ([2]; Peptoniphilus lacrimalis, isolate 601296V N): 0.015 µg/mL (≈ 0.0191 µM)
MIC ([2]; Peptoniphilus lacrimalis, isolate 601305V K-1): 0.0075 µg/mL (≈ 0.00954 µM)
MIC ([2]; Peptoniphilus lacrimalis, isolate 601318V E): 0.0075 µg/mL (≈ 0.00954 µM)
MIC ([2]; Peptoniphilus lacrimalis, isolate 601330V H): 0.015 µg/mL (≈ 0.0191 µM)
MIC ([2]; Peptoniphilus lacrimalis, isolate 601336V 47): 0.015 µg/mL (≈ 0.0191 µM)
MIC ([2]; Peptoniphilus lacrimalis, isolate 601365V 13): 0.0075 µg/mL (≈ 0.00954 µM)
MIC ([2]; Peptoniphilus lacrimalis, isolate 601368V 39): 0.0075 µg/mL (≈ 0.00954 µM)
MIC ([2]; Peptoniphilus lacrimalis, isolate 601375V E): 0.0075 µg/mL (≈ 0.00954 µM)
MIC ([2]; Peptoniphilus lacrimalis, isolate 601388V B): 0.00375 µg/mL (≈ 0.00477 µM)
MIC ([2]; Peptoniphilus lacrimalis, isolate 601401V I): 0.00375 µg/mL (≈ 0.00477 µM)
MIC50 [2, 5]: 0.015 µg/mL (≈ 0.0191 µM)
MIC90 [2, 5]: 0.015 µg/mL (≈ 0.0191 µM)
MIC ([3]; 427510 h, isolate 427507 H): 0.015 µg/mL (≈ 0.0191 µM)
MIC50 ([3]; # tested 25): 0.015 µg/mL (≈ 0.0191 µM)
MIC90 ([3]; # tested 25): 0.015 µg/mL (≈ 0.0191 µM)
MIC Range ([3]; # tested 25): 0.0075 to 0.015 µg/mL
Number of strains with indicated MIC ([3]; MIC 0.0075 μg/ml): 3
Number of strains with indicated MIC ([3]; MIC 0.015 μg/ml): 22
MIC ([3]; isolate 426749 T): 0.0075 µg/mL (≈ 0.00954 µM)
MIC ([3]; isolate 426766 Q): 0.015 µg/mL (≈ 0.0191 µM)
MIC ([3]; isolate 426788 8a): 0.015 µg/mL (≈ 0.0191 µM)
MIC ([3]; isolate 426788 C): 0.015 µg/mL (≈ 0.0191 µM)
MIC ([3]; isolate 427470 10): 0.015 µg/mL (≈ 0.0191 µM)
MIC ([3]; isolate 427490 2u): 0.015 µg/mL (≈ 0.0191 µM)
MIC ([3]; isolate 427509 A): 0.015 µg/mL (≈ 0.0191 µM)
MIC ([3]; isolate 427522 8): 0.015 µg/mL (≈ 0.0191 µM)
MIC ([3]; isolate 600770 O): 0.015 µg/mL (≈ 0.0191 µM)
MIC ([3]; isolate 600790 N): 0.015 µg/mL (≈ 0.0191 µM)
MIC ([3]; isolate 600796 V): 0.015 µg/mL (≈ 0.0191 µM)
MIC ([3]; isolate 600831 9): 0.015 µg/mL (≈ 0.0191 µM)
MIC ([3]; isolate 600837 18): 0.015 µg/mL (≈ 0.0191 µM)
MIC ([3]; isolate 600861 P): 0.015 µg/mL (≈ 0.0191 µM)
MIC ([3]; isolate 602236 E3): 0.007 µg/mL (≈ 0.00891 µM)
MIC ([3]; isolate 602241 D): 0.015 µg/mL (≈ 0.0191 µM)
MIC ([3]; isolate 602241 F): 0.015 µg/mL (≈ 0.0191 µM)
MIC ([3]; isolate 602270 A): 0.015 µg/mL (≈ 0.0191 µM)
MIC ([3]; isolate 602282 I): 0.015 µg/mL (≈ 0.0191 µM)
MIC ([3]; isolate 602288 16): 0.015 µg/mL (≈ 0.0191 µM)
MIC ([3]; isolate 602302 22): 0.015 µg/mL (≈ 0.0191 µM)
MIC ([3]; isolate 602305 I): 0.015 µg/mL (≈ 0.0191 µM)
MIC ([3]; isolate 602324 8): 0.0075 µg/mL (≈ 0.00954 µM)
MIC ([3]; isolate 602672 12A): 0.015 µg/mL (≈ 0.0191 µM)
